Source: patent US20240199755A1, “ANTAGONISTS AND AGONISTS OF THE TRANSFERRIN RECEPTOR-2 FOR USE IN THE TREATMENT OF DISEASES OF THE BONE” (Kymab Limited, priority 2018, published 2024)

Assays:
[1] = tested on: bone mass of Tfr2-/- mice; assay: Anisomycin treatment of WT and Tfr2-/- mice; assay type: in vivo; settings: 5 mg/kg anisomycin for 3 weeks
[2] = tested on: Sost mRNA expression in osteoblasts; assay: Sost mRNA expression (qPCR) in ex vivo differentiated osteoblasts after anisomycin; assay type: cell-based, mice; settings: 100 nM anisomycin, 24 h
Method: Primary murine osteoblasts were differentiated from the bone marrow using standard osteogenic medium in DMEM with 10% FCS, 1% penicillin/streptomycin (Life Technologies, Germany). RNA was isolated at various time points and day 7 osteoblasts were used for immunofluorescence analysis of Tfr2 and for the deep sequencing analysis.
(§1) Signaling studies: day 7 differentiated cells were treated with 50 ng/ml BMP-2, BMP-4 or BMP-6 for 0, 20, and 40 min and lysed in protein lysis buffer (at least two independent experiments with 3 n each). Anisomycin was used to activate MAPK signaling on day 7 differentiated osteoblasts. Cells were treated with 100 nM anisomycin for 20 min for subsequent protein analysis. For RNA isolation and detection of gene expression, cells were treated with different doses of anisomycin for 24 h (two independent experiments with 3 n each).
RNA from cell cultures was isolated with the High Pure RNA Isolation Kit (Roche) and RNA from the bones of mice was isolated by crushing flushed bones (femur and tibia) in liquid nitrogen and collecting the bone powder in Trifast (Peqlab, Germany). Other organs were homogenized directly in Trifast using an ultraturrax (IKA, Germany). […] The results were calculated using the ΔΔCT method and are presented in x-fold increase relative to β-actin (or GAPDH where indicated) mRNA levels.

[3] = tested on: ERK (pERK) and p38 (pp38) signaling in osteoblasts; assay: Western blot of ERK and p38 activation in osteoblasts after anisomycin; assay type: cell-based, mice; settings: 100 nM anisomycin for 20 min
Method: as §1
Cells were lysed in a buffer containing 20 mM Tris/HCl pH 7.4, 1% SDS, and a protease inhibitor (complete mini, Roche, Germany). To isolate protein from tissues, the protein fraction of the Trifast procedure was used and further processed according to the manufacturer's protocol. The protein concentration was determined using the BCA method (Pierce, Germany). Twenty μg of heatdenatured protein was loaded onto a 10% gel, separated, and transferred onto a 0.2 μm nitrocellulose membrane (Whatman, Germany). […]

Tfr2-ECD = biological target: T1, Tfr2-ECD (Mus musculus, UniProt Q9JKX3); assay: SPR binding of holo-Tf and BMP receptors to Tfr2-ECD immobilized on the sensor chip; set-up: species or system murine; settings: increasing holo-Tf concentrations without intermediate regeneration
T1 construct: full-length extracellular domain (ECD, aa 103-798) of murine Tfr2; His (N); MBP (N); c3 (protease site between MBP and ECD) (N); made in house; host or cells: Sf9 insect cells (baculovirus, pOCC211-Tfr2-ECD)
T1 sequence (Q9JKX3 103-798): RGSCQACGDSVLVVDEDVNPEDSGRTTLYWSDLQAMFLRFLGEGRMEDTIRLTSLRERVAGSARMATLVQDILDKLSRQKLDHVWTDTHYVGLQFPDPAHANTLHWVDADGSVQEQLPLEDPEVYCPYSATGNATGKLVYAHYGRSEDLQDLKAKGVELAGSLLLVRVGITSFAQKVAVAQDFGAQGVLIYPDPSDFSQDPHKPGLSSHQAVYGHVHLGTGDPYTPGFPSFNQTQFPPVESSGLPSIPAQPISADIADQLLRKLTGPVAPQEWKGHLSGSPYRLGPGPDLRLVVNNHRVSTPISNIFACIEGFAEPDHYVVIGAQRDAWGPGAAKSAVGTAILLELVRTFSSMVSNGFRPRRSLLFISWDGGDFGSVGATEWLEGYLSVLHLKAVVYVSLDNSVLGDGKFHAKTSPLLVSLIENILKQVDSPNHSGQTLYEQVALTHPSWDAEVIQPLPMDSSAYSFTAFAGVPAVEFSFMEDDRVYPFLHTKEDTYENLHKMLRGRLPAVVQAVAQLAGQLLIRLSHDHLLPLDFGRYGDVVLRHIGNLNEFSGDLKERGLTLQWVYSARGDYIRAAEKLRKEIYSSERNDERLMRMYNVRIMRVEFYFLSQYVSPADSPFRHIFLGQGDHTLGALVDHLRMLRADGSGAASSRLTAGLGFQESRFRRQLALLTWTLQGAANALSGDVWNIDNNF
Method: For this purpose, Tfr2-ECD is immobilized on a Series S Sensor Chip C1 (GE Healthcare), by means of coupling the amino groups at 25° C. The carboxyl groups on the chip surface are activated for 7 minutes using a mixture of 196 mM 1-ethyl-3-(3-dimethylaminopropyl) carbodiimide-hydrochloride and 50 mM n-hydroxysuccinimide at a flow rate of 10 μl/min. Subsequently, 5 μg/ml Tfr2-ECD, diluted with sodium acetate buffer (pH 4.5), is injected at a flow rate of 5 μl/min up to a relative occupancy of 200 RU. Non-reacted groups are inactivated by injecting 1 M thanolamine-HCl (pH 8.5) for 7 minutes at a flow rate of 10 μl/min. In order to prepare a reference surface, the same procedure is carried out but without Tfr2-ECD being injected.
The binding assays are carried out at 37° C. at a flow rate of 30 μl/min. Each analyte is diluted by a running buffer (HBS-P, pH 7.4 together with 50 nM FeCl3). […] The values of the binding level are read out, relative to the baseline, 10 s before the end of the injection and are corrected with respect to the molar mass. […] The binding parameters are determined using the Biacore™ T100 evaluation software 2.03. […]
For binding analysis, an injection of analyte for 240 s or 300 s over a Tfr2-ECD surface was followed by 1000 s dissociation. The values of the binding levels were recorded from referenced signals 10 s before the end of injection relative to baseline response. […]

[4] = biological target: T2, BMP-2 binding to Tfr2-ECD (Homo sapiens, UniProt P12643); assay: SPR competition / sequential injection experiments on Tfr2-ECD surface; settings: sequential injection of BMP-2 and holo-Tf
T2 construct: full-length extracellular domain (ECD, aa 103-798) of murine Tfr2; His (N); MBP (N); c3 (protease site between MBP and ECD) (N); host or cells: Sf9 insect cells (Tfr2-ECD)
T2 sequence (P12643 283-396): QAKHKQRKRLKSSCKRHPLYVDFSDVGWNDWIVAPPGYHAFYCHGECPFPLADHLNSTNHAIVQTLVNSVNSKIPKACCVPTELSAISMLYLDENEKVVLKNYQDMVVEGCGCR
Method: The binding analysis was performed at 37° C. at a flow rate of 30 μl/min. […] In some experiments, 500 mM NaCl were used to reduce potential non-specific binding. […] Concentration-dependent binding of holo-Tf was performed without intermediate regeneration.

| Compound | Osteoclast numbers (Oc.S/BS) [1] | Bone volume (BV/TV of the fourth lumbar vertebrae) ([1]; Tfr2-/- mice) | Osteoblast numbers (N.Ob/B.Pm) ([1]; Tfr2-/- mice) | Serum levels of sclerostin ([1]; Tfr2-/- mice) | Increase of Sost mRNA expression ([2]; Tfr2 osteoblasts) | Increase of Sost mRNA expression ([2]; WT osteoblasts) | ERK and p38 phosphorylation [3] | Kd value of holo-Tf binding to Tfr2 (Tfr2-ECD) | Competition with BMP-2 for binding to Tfr2 [4] |
| --- | --- | --- | --- | --- | --- | --- | --- | --- | --- |
| COc1ccc(C[C@H]2NC[C@H](O)[C@H]2OC(C)=O)cc1 [anisomycin] | not altered | decreased bone volume back to WT levels | reduced | increased | 19 fold | 14 fold | induced ERK and p38 phosphorylation |  |  |
| Holo-Tf: holo-transferrin, the only known Tfr2 ligand |  |  |  |  |  |  |  | micromolar range | did not compete |
